Results on 4 compounds are retold here after ChEMBL document CHEMBL5113416, “Glycosylation increases the anti-QS as well as anti-biofilm and anti-adhesion ability of the cyclo (L-Trp-L-Ser) against Pseudomonas aeruginosa” (Eur J Med Chem, 2022).

For data set [1], the system named is Pseudomonas aeruginosa. Briefly: Synergistic bactericidal activity against Pseudomonas aeruginosa PAO1 assessed as reduction in bacterial density at 200 uM incubated for 6 hrs in presence of azithromycin by colony-counting method. In kind it is functional. On the set-up: scale not given: the % may be the effect or the level left.
The nature of data set [2]: Stability of the compound in rabbit plasma assessed as retention rate at 200 to 1000 uM and measured upto 24 hrs by HPLC analysis. In kind it is ADME, cell-free, Oryctolagus cuniculus. Conditions: dose 200-1000 µM, read-out: Stability.
Data set [3] relates to Pseudomonas aeruginosa. Briefly: Antibiofilm activity against Pseudomonas aeruginosa PAO1 assessed as disruption of preformed biofilm incubated for 4 hrs by crystal violet staining based microscopic analysis. Format: functional, organism-based. Conditions: PAO1, 4 h.
For data set [4], the system named is A549. Briefly: Cytotoxicity against human A549 cells assessed as reduction in cell viability at 2 mM incubated for 24 hrs by MTT assay. In kind it is toxicity, cell-based. Conditions: a549, 24 h, 2000 µM.
Data set [5] can be described thus: Inhibition of quorum sensing system in Pseudomonas aeruginosa PAO1 assessed as downregulation of […] gene expression at 200 uM by qRT-PCR analysis.
Data set [6] relates to Pseudomonas aeruginosa. Briefly: Antibiofilm activity against Pseudomonas aeruginosa PAO1 assessed as inhibition of swarming motility at 200 uM for 18 hrs by motility assay. In kind it is functional, organism-based.
A short description of data set [7]: Inhibition of quorum sensing system in Pseudomonas aeruginosa PAO1 assessed as downregulation of rhlR gene expression at 200 uM by qRT-PCR analysis.
The test system of data set [8] is Pseudomonas aeruginosa. Briefly: Antibiofilm activity against Pseudomonas aeruginosa PAO1 assessed as disruption of preformed biofilm at 200 uM incubated for 4 hrs by crystal violet staining based microscopic analysis. Format: functional.
In data set [9] the test system is Pseudomonas aeruginosa. Briefly: Antibiofilm activity against Pseudomonas aeruginosa PAO1 assessed as disruption of preformed biofilm at 200 uM incubated for 4 hrs by Confocal microscopic analysis. Format: functional, organism-based.
The subject of data set [10] is Pseudomonas aeruginosa. Briefly: Anti-adhesion activity against Pseudomonas aeruginosa PAO1 assessed as inhibition of adhesion ability at 200 uM incubated for 3 hrs using glass as substrate by SEM analysis. Format: functional, organism-based.
Data set [11] concerns Pseudomonas aeruginosa. Briefly: Synergistic bactericidal activity against Pseudomonas aeruginosa PAO1 assessed as reduction in bacterial density at 200 uM incubated for 1 hrs in presence of azithromycin by colony-counting method. Format: functional. On the set-up: scale not given: the % may be the effect or the level left.
The target of data set [12] is T1, PA-I galactophilic lectin (Pseudomonas aeruginosa (strain ATCC 15692 / PAO1 / 1C / PRS 101 / LMG12228), UniProt Q05097).
T1 sequence (Q05097 whole entry): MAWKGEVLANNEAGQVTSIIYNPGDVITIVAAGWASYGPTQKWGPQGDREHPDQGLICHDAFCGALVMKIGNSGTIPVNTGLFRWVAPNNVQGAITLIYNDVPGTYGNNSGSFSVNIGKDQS
Briefly: Binding affinity to Pseudomonas aeruginosa PAO1 LecA assessed as dissociation constant by ITC analysis.

For data set [13], the system named is Pseudomonas aeruginosa. Briefly: Anti-adhesion activity against Pseudomonas aeruginosa PAO1 assessed as inhibition of adhesion ability incubated for 3 hrs using glass as substrate by colony-counting method. In kind it is functional, organism-based. Conditions: PAO1, 3 h.
Data set [14] concerns the target Elastase (Pseudomonas aeruginosa (strain ATCC 15692 / PAO1 / 1C / PRS 101 / LMG12228)) (UniProt P14756). Briefly: Inhibition of Pseudomonas aeruginosa PAO1 elastase activity at 10 to 200 uM for 18 hrs by elastin Congo red based microplate reader analysis. Conditions: dose 10-200 µM.
Data set [15] in a line: Inhibition of quorum sensing system in Pseudomonas aeruginosa PAO1 assessed as decrease of pyocyanin production at 10 to 200 uM for 18 hrs by microplate reader analysis. Conditions: dose 10-200 µM.
Data set [16] deals with Pseudomonas aeruginosa. Briefly: Antibiofilm activity against Pseudomonas aeruginosa PAO1 assessed as inhibition of biofilm formation at 200 uM incubated for 24 hrs in presence of CaCl2 by crystal violet staining based microscopic analysis. Format: functional.
The test system of data set [17] is Pseudomonas aeruginosa. Briefly: Antibiofilm activity against Pseudomonas aeruginosa PAO1 assessed as inhibition of biofilm formation incubated for 24 hrs in presence of CaCl2 by crystal violet staining based microscopic analysis. Conditions: PAO1, 24 h. Format: functional, organism-based.
Data set [18] in a line: Toxicity in sheep red blood cells assessed as induction of hemolysis measured after 4 hr. In kind it is cell-based, Ovis aries, Erythrocyte.
In data set [19] the test system is Pseudomonas aeruginosa. Briefly: Anti-adhesion activity against Pseudomonas aeruginosa PAO1 to human A549 cells assessed as decrease in cell adhesion ability at 200 uM incubated for 3 hrs by DAPI staining based confocal microscopy. Format: functional. Details: scale not given: the % may be the effect or the level left.
The test system of data set [20] is Pseudomonas aeruginosa. Briefly: Anti-adhesion activity against Pseudomonas aeruginosa PAO1 assessed as inhibition of adhesion ability at 200 uM incubated for 3 hrs using glass as substrate by colony-counting method. In kind it is functional.
Data set [21] has as its system Pseudomonas aeruginosa. Briefly: Antibiofilm activity against Pseudomonas aeruginosa PAO1 assessed as inhibition of biofilm formation at 10 to 200 uM incubated for 24 hrs in presence of CaCl2 by crystal violet staining based microscopic analysis. In kind it is functional, organism-based. Conditions: dose 10-200 µM.
A short description of data set [22]: Toxicity in sheep red blood cells assessed as induction of hemolysis at 200 uM for 4 hr. Format: cell-based, Ovis aries. Conditions: erythrocyte.
Data set [23] deals with Pseudomonas aeruginosa. Briefly: Antibiofilm activity against Pseudomonas aeruginosa PAO1 assessed as disruption of preformed biofilm at 200 uM incubated for 4 hrs by SEM analysis. Format: functional, organism-based.
A short description of data set [24]: Inhibition of quorum sensing system in Pseudomonas aeruginosa PAO1 assessed as downregulation of lasR gene expression at 200 uM by qRT-PCR analysis.
Data set [25] can be described thus: Inhibition of quorum sensing system in Pseudomonas aeruginosa PAO1 assessed as decrease of pyocyanin production at 200 uM for 18 hrs by microplate reader analysis.
Data set [26] relates to Pseudomonas aeruginosa. Briefly: Bactericidal activity against Pseudomonas aeruginosa PAO1 assessed as reduction in bacterial density at 150 ug/ml incubated for 1 hrs by colony-counting method. Conditions: dose 150 µg/ml. Details: scale not given: the % may be the effect or the level left. In kind it is functional.
The subject of data set [27] is Pseudomonas aeruginosa. Briefly: Bactericidal activity against Pseudomonas aeruginosa PAO1 assessed as reduction in bacterial density at 150 ug/ml incubated for 6 hrs by colony-counting method. In kind it is functional. Details: scale not given: the % may be the effect or the level left. Conditions: dose 150 µg/ml.
Data set [28] deals with Pseudomonas aeruginosa. Briefly: Anti-adhesion activity against Pseudomonas aeruginosa PAO1 assessed as inhibition of adhesion ability at 50 ug/ml incubated for 3 hrs using glass as substrate by colony-counting method. Format: functional.
Data set [29] relates to Pseudomonas aeruginosa. Briefly: Anti-adhesion activity against Pseudomonas aeruginosa PAO1 assessed as inhibition of adhesion ability at 50 ug/ml incubated for 3 hrs using glass as substrate by SEM analysis. In kind it is functional, organism-based. Conditions: dose 50.0 µg/ml.

Activity calls are given as the source filed them. The rule behind the calls is not given here.

Sequence of Elastase (Pseudomonas aeruginosa (strain ATCC 15692 / PAO1 / 1C / PRS 101 / LMG12228)) (P14756 198-498 limits assumed): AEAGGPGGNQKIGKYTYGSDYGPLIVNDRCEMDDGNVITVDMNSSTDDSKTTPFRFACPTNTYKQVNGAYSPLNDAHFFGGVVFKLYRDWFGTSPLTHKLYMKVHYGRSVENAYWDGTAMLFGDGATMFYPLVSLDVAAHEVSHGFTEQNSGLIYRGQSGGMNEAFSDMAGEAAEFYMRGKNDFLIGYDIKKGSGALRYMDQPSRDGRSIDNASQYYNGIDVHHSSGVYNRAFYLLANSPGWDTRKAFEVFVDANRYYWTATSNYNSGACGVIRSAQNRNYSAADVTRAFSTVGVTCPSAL

On to `O=C1N[C@@H](Cc2c[nH]c3ccccc23)C(=O)N[C@H]1CO[C@@H]1O[C@H](CO)[C@H](O)[C@H](O)[C@H]1O`, for which the Activity in data set [1] is recorded as 7%; in data set [4], 90%; in data set [8] it was 54%; in data set [11] it was 81%; in [19], 29%; in data set [22], “Non-Toxic”. Also, the remaining at 24 h, up to 1000 µM in [2] was more than 70%. The EC50 in data set [3] was 80 µM. Further, the inhibition result in data set [5], in data set [7], in data set [10], in [14], in data set [15] and in data set [21] was “Active” each time. In addition, the result in data set [6], in data set [9] and in [23] was Active. Also, the Kd in data set [12] came out at 91.3 µM. The figures for the IC50 in [13] and in data set [17] were 200 µM and 100 µM, respectively. Besides, the results for the inhibition at 200 µM in data set [16] and in [20] were 69% and 50%, respectively. For the same compound, in data set [18], the HC50 at 4 h is more than 10 mM.
For `O=C1N[C@@H](Cc2c[nH]c3ccccc23)C(=O)N[C@H]1CO`, the EC50 in data set [3] stood at 800 µM. In addition, the inhibition in data set [24] was found to be 20%; in [25], 35%. The values for the IC50 in data set [13] and in [17] were 800 µM and 600 µM, respectively. Further, the inhibition entry in data set [15] was “Active”. The outcome in data set [19] was Active. Besides, the inhibition at 200 µM in [20] turned out to be 16%.
In the case of `CC[C@H]1OC(=O)[C@H](C)[C@@H](O[C@H]2C[C@@](C)(OC)[C@@H](O)[C@H](C)O2)[C@H](C)[C@@H](O[C@@H]2O[C@H](C)C[C@H](N(C)C)[C@H]2O)[C@](C)(O)C[C@@H](C)CN(C)[C@H](C)[C@@H](O)[C@]1(C)O` [AZITHROMYCIN], the figures for the Activity in data set [26] and in data set [27] were 99% and 27%, respectively. In addition, the inhibition at 50 µg/mL in data set [28] amounted to 48%. The inhibition result in data set [29] is “Active”.
In the case of `O=C1N[C@@H](Cc2c[nH]c3ccccc23)C(=O)N[C@H]1CO[C@@H]1O[C@H](CO)[C@@H](O)[C@H](O)[C@H]1O`, the Activity in data set [1] was 5%; in data set [4], 90%; in data set [8], 47%; in data set [11] it was 73%; in data set [22] it was “Non-Toxic”. The remaining at 24 h, up to 1000 µM in data set [2] is more than 70%. The EC50 in [3] was determined as 300 µM. For the same compound, the inhibition entry in data set [5], in data set [7], in data set [14] and in data set [15] was “Active” in each case. Also, the outcome in data set [6], in data set [9], in [19] and in data set [23] was Active. Further, the IC50 in [13] turned out to be 500 µM; in [17], 250 µM. The inhibition at 200 µM in [16] was 44%; in data set [20] it was 32%. Besides, the HC50 at 4 h in [18] is more than 10 mM.
